Laboratory results taken from article PMC6374954, “Design, synthesis, and biological evaluation of novel derivatives of dithiodiglycolic acid prepared via oxidative coupling of thiols” (Journal of Enzyme Inhibition and Medicinal Chemistry, 2019).
Read-outs that look alike come from different tables or passages of the source. Blank lines part the entries; values can stand above or below the molecule they belong to.

Legend:
TrxR = target: TrxR; parameters: method as in PMID 27977313; settings: read-out: Ki value toward the enzyme; cited from earlier work
TrxR1 [1] = settings: cited from earlier work
TrxR1 [2] = target: T1, TrxR1 (Homo sapiens, UniProt Q16881); assay: TrxR inhibition assay (DTNB), SH-SY5Y cell lysate; assay type: biochemical; settings: for IC50: neuroblastoma (SHSY5Y) lysate, mean ± SEM (n = 3)
T1 construct: For TrxR assay, lysate from SH-SY5Y cells and rat liver were used; endogenous in cells; host or cells: SH-SY5Y human neuroblastoma cells (10,000 x g supernatant of the homogenate)
T1 sequence (Q16881 151-649 limits assumed): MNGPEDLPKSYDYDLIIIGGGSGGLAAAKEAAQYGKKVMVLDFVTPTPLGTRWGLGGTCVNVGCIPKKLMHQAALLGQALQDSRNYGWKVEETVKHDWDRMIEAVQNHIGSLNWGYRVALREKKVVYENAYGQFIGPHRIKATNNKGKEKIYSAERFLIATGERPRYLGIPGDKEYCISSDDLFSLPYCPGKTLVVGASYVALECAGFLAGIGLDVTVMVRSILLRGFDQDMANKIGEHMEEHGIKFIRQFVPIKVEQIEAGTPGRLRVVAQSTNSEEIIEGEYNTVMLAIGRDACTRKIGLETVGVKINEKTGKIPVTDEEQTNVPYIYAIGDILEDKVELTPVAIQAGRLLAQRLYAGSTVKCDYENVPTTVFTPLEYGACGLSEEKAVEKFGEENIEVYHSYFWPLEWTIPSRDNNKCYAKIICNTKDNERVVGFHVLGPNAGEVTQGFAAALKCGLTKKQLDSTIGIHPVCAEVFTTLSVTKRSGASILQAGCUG
Protocol: (§3) For TrxR assay, lysate from SH-SY5Y cells and rat liver were used. SHSY5Y cells were washed twice with phosphate buffer solution (PBS) and harvested from the flask with a scraper. Cells were homogenised in ice-cold 50 mM potassium phosphate buffer (pH 7.4), containing 1 mM EDTA, with Ultra Turrax T25 (Ikawerk, Janke and Kunkel Inc., Staufen, Germany). The homogenates were centrifuged at 10,000 × g for 15 min at 4 °C. The protein concentrations of the supernatants were determined using a Bio-Rad protein assay kit (Bio-Rad Laboratories, USA). TrxR activity was assayed using 5,5-dithio-bis-(2-nitrobenzoic acid) (DTNB, Sigma-Aldrich, USA) as substrate[21]. The reactions were run on a 96-well plates, final volume of 100 µl in 50 mM potassium phosphate buffer (pH 7.0), containing 50 µg of the cell lysate proteins, 1-mM EDTA, 50 mM KCl, 0.2 mg/ml bovine serum albumin, 0.25 mM NADPH (Acros Organics, USA). Reaction mixture was incubated for 15 min at room temperature in plate shaker (PST-60HL-4, BioSan, Riga, Latvia); afterwards DTNB was added to the total concentration of 2.5 mM. Enzyme kinetics was monitored on a Tecan Infinite1000 microplate reader, by measuring the increase in absorbance at 412 nm for 20 min. The background TrxR-independent reduction of DTNB in the cell lysates, as determined in the presence of aurothiomalate (200 µM), was subtracted from each value[22]. Reaction mixture with rat liver lysate contained 35 µg of proteins, 1 mM EDTA, 50 mM KCl, 0.2 mg/ml bovine serum albumin, 0.25 mM NADPH, and 2.5 mM DTNB. Reactions with rat liver lysate were run in the same manner as cell lysates.

TrxR1 [3] = target: T2, TrxR1 (Rattus norvegicus, UniProt O89049); assay: TrxR inhibition assay (DTNB), rat liver (hepatocyte) lysate
T2 sequence (O89049 1-499): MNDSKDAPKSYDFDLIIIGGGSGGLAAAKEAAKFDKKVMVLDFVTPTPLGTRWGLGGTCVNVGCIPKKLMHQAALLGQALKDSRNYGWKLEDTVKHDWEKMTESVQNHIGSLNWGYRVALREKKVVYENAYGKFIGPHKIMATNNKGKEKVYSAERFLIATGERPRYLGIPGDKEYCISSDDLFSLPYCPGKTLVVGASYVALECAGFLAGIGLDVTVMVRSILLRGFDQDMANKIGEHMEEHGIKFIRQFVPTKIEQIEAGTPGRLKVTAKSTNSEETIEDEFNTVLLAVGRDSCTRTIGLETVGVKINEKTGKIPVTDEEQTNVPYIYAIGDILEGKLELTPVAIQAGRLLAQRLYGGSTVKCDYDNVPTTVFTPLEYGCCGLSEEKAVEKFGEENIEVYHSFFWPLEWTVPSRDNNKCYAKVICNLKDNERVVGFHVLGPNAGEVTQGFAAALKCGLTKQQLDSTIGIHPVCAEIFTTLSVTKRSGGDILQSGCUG
Protocol: as §3

SHSY5Y cells = assay: Cytotoxicity assay (MTT), SH-SY5Y; assay type: cell-based, human; settings: 72 h, mean ± SEM (n = 3)
Protocol: (§1) Human neuroblastoma cells (SH-SY5Y) were grown in 1:1 mixture of Eagle's Minimum Essential Medium and F12 Medium (Sigma) supplemented with 10% foetal bovine serum (Sigma). Human keratinocytes (HaCaT) were grown in DMEM, supplemented with 10% foetal bovine serum, 2 mM L-glutamine, 5000 U/ml penicillin, and 5 mg/ml streptomycin. Human glioblastoma cell (U87-MG) were grown in Minimum Essential Media (MEM), containing 10% foetal bovine serum, 2 mM L-glutamine, 5,000 U/ml penicillin, and 5 mg/ml streptomycin. All cell lines were obtained from American Type Culture Collection (ATCC, Rockville, MD). All cell lines were grown at 37 °C in a humidified 5% CO2 atmosphere.
(§2) Cells grown in 25 cm^2 tissue flasks were trypsinized, seeded into flat-bottomed adherent 96-well cell culture plates in appropriate medium (SH-SY5Y 12,000 cells/well, U87-MG 4000 cells/well, HaCaT 2000 cells/well) and incubated overnight; afterwards the cells were exposed to different concentrations of the tested compounds for 72 h. Cell viability was measured by MTT assay. Briefly, after incubation with the compounds, medium containing 0.2 mg/ml MTT was added. After incubation (3 h, 37 °C, 5% CO2), the MTT-containing medium was removed, and 200 µl of dimethyl sulfoxide (DMSO) was immediately added to each sample. The samples were assessed at 540 nm on LKB 5060–006 Microplate Reader (Vienna, Austria) microplate reader. The half-maximal inhibitory concentration (IC50) of each compound was calculated using Graph Pad Prism® 6.0 (GraphPad Software, Inc., USA).

HaCaT cells = assay: Cytotoxicity assay (MTT), HaCaT; assay type: cell-based, human; settings: 72 h, mean ± SEM (n = 3)
Protocol: as §1, §2

U87 cells = assay: Cytotoxicity assay (MTT), U87; assay type: cell-based, human; settings: for CC50: U87 cells, 72 h, MTT, mean ± SEM (n = 3)
Protocol: as §1, §2

[4] = Cytotoxicity assay (MTT), SH-SY5Y; assay type: cell-based, human; settings: human, SH-SY5Y neuroblastoma cells, SHSY5Y cells, mean ± SEM (n = 3)
Protocol: as §1, §2

[5] = Cytotoxicity assay (MTT), HaCaT; assay type: cell-based, human; settings: human, HaCaT keratinocytes, HaCaT cells, mean ± SEM (n = 3)
Protocol: as §1, §2

[6] = Cytotoxicity assay (MTT), U87; assay type: cell-based, human; settings: human, U87-MG glioblastoma cells; U87 cells; 72 h; MTT; mean ± SEM (n = 3)
Protocol: as §1, §2

TrxR1 [7] = target: T2, TrxR1
Protocol: as §3

[8] = TrxR IC50 Hepatocyte lysate, mean ± SEM (n = 3)
[9] = read-out: TrxR IC50 Hepatocyte lysate, mean ± SEM (n = 3)

SMILES: CCC(C)SSc1ncc[nH]1 (stereo not shown) [Compound 2]
Ki (TrxR): 31 µM

SMILES: O=S(=O)(O)CCSSCCS(=O)(=O)O [Compound 4, disodium 2,2′-dithio-bis-ethane sulphonate]
Km (TrxR1 [1]; TrxR substrate analogue, read-out: Km value): 72 µM

SMILES: CN1C(=O)[C@@]23C[C@]4([C@]56C[C@@]78SS[C@@](CO)(C(=O)N7[C@H]5Nc5ccccc56)N(C)C8=O)c5ccccc5N[C@@H]4N2C(=O)[C@]1(CO)SS3 [Compound 5, chaetocin]
Km (TrxR1 [1]; TrxR1, substrate-competitive inhibition profile, read-out: Km values): 4.6 µM

SMILES: CN1C(=O)[C@]23CC4=CC=C[C@H](O)[C@H]4N2C(=O)[C@@]1(CO)SS3 [Compound 6, gliotoxin]
Km (TrxR1 [1]; read-out: Km values): 16.9 µM

IC50 (TrxR1 [2]): > 200 µM | IC50 (TrxR1 [3]; [8]): 170 ± 54.2 µM
SMILES: O=C(CSSCC(=O)N1CCCC1)N1CCCC1 [Compound 11a, 2,2′-Disulfanediylbis(1-(pyrrolidin-1-yl)ethan-1-one)]

SMILES: CCCNC(=O)CSSCC(=O)NCCC [Compound 11b]
IC50 (TrxR1 [2]): > 200 µM | CC50 (SHSY5Y cells): 220 ± 15.3 µM | CC50 (HaCaT cells): 58.4 ± 5 µM | times more active against U87 cell line compared to the other three compounds (U87 cells; U87, versus 11d, 11g, 12a): 2–3 times | CC50 (U87 cells): 54.6 ± 3.4 µM | IC50 (TrxR1 [3]; [9]): 26.5 ± 2.9 µM

SMILES: O=C(CSSCC(=O)N1CCOCC1)N1CCOCC1 [Compound 11c]
IC50 (TrxR1 [2]): 190 ± 78.4 µM | IC50 (TrxR1 [3]; [9]): 182 ± 32.2 µM

SMILES: O=C(CSSCC(=O)NC1CC1)NC1CC1 [Compound 11d]
IC50 (TrxR1 [2]): 63.6 ± 27.5 µM | CC50 (SHSY5Y cells): 202 ± 12 µM | CC50 (HaCaT cells): 69 ± 3.4 µM | CC50 (U87 cells): 180 ± 12.6 µM | IC50 (TrxR1 [3]; [9]): 34.7 ± 9.1 µM

SMILES: COc1ccc(CNC(=O)CSSCC(=O)NCc2ccc(OC)cc2)cc1 [Compound 11e]
IC50 (TrxR1 [2]): > 200 µM | IC50 (TrxR1 [3]; [9]): > 200 µM

SMILES: CN1CCN(C(=O)CSSCC(=O)N2CCN(C)CC2)CC1 [Compound 11f]
IC50 (TrxR1 [2]): > 200 µM | IC50 (TrxR1 [3]; [9]): > 200 µM

SMILES: CC(C)(C)NC(=O)CSSCC(=O)NC(C)(C)C [Compound 11g]
inhibitory activity against neuroblastoma (SHSY5Y) cell lysate (in words) (TrxR1 [2]): virtually no activity | IC50 (TrxR1 [2]): > 200 µM | CC50 (SHSY5Y cells): 174 ± 18.3 µM | CC50 (HaCaT cells): 43 ± 2.9 µM | CC50 (U87 cells): 125 ± 15.6 µM | IC50 (TrxR1 [3]; [9]): 22.2 ± 3.1 µM

SMILES: O=C(CSSCC(=O)Nc1ccc(F)cc1)Nc1ccc(F)cc1 [Compound 11h]
IC50 (TrxR1 [2]): > 200 µM | IC50 (TrxR1 [3]; [9]): > 200 µM

SMILES: COc1ccc(NC(=O)CSSCC(=O)Nc2ccc(OC)cc2)cc1 [Compound 11i]
IC50 (TrxR1 [2]): > 200 µM | IC50 (TrxR1 [3]; [9]): > 200 µM

SMILES: NC(=O)CSSCC(N)=O [Compound 11j]
inhibitory activity against neuroblastoma (SHSY5Y) cell lysate (in words) (TrxR1 [2]): virtually no activity | IC50 (TrxR1 [2]): > 200 µM | IC50 (TrxR1 [3]; [9]): 90.4 ± 18.7 µM

IC50 (TrxR1 [2]): 44.4 ± 15.1 µM | IC50 (TrxR1 [3]; [8]): 45.6 ± 6.8 µM
SMILES: CCCNC(=O)CSSCC(=O)N1CCOCC1 [Compound 12a, 2-((2-Morpholino-2-oxoethyl)disulfanyl)-N-propylacetamide]
CC50 at 72 h [4]: 176 ± 13.4 µM | CC50 at 72 h [5]: 71.8 ± 6.9 µM | CC50 at 72 h [6]: 187 ± 15.9 µM

IC50 (TrxR1 [2]): 186 ± 83.8 µM | IC50 (TrxR1 [3]; [8]): > 200 µM
SMILES: COC(=O)CSSCC(=O)Nc1ccc(F)cc1 [Compound 13a, Methyl 2-((2-((4-fluorophenyl)amino)-2-oxoethyl)disulfanyl)acetate]

inhibitory activity against neuroblastoma (SHSY5Y) cell lysate (in words) (TrxR1 [2]): virtually no activity | IC50 (TrxR1 [2]): > 200 µM | IC50 (TrxR1 [3]; [8]): > 200 µM
SMILES: O=C(O)CSSCC(=O)O [Compound 14, 2,2′-disulfanediyldiacetic acid, reference compound]

inhibitory activity against neuroblastoma (SHSY5Y) cell lysate (in words) (TrxR1 [2]): completely devoid of inhibitory activity | IC50 (TrxR1 [2]): > 200 µM | activity against liver cell lysate (in words) (TrxR1 [7]): completely devoid of inhibitory activity
SMILES: O=C([O-])CSSCC(=O)[O-].[Na+].[Na+] [Compound 15, 2,2′-disulfanediyldiacetic acid disodium salt, reference compound]

inhibitory activity against neuroblastoma (SHSY5Y) cell lysate (in words) (TrxR1 [2]): virtually no activity | IC50 (TrxR1 [2]): > 200 µM | IC50 (TrxR1 [3]; [8]): > 200 µM
SMILES: COC(=O)CSSCC(=O)OC [Compound 17, Dimethyl 2,2′-disulfanediyldiacetate]
